This note sets out measurements from patent US5216022A, “Aromatic esters of phenylenedialkanoates as inhibitors of human neutrophil elastase” (Cortech, Inc., priority 1991, dated 1993).

Structures are written as SMILES. pIC50: −log10 of the molar value.

The target of this experiment is T1, human neutrophil elastase (HNE) (Homo sapiens, UniProt P08246).
T1 sequence (P08246 30-267): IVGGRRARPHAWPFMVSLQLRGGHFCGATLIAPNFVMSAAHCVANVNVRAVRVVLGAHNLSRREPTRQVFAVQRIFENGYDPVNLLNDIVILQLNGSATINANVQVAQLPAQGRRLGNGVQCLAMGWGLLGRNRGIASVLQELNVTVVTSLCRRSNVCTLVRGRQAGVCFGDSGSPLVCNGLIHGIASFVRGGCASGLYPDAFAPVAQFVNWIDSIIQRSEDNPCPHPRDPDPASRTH
Kind of experiment: Potency (IC50 determination) against human neutrophil elastase, chromogenic substrate N-methoxysuccinyl-ala-ala-pro-val-pNA, 405 nm. In kind it is biochemical. As to conditions: pH 7.7, 7 min incubation at room temperature. The protocol: A) 0.075M sodium phosphate, 20% dimethyl sulfoxide (DMSO),pH 7.7=substrate and inhibitor buffer
B) 0.075M sodium phosphate no DMSO,pH7.7=inhibitor buffer
C) 10 mM human neutrophil elastase (HNE) substrate=N-methoxysuccinyl-ala-ala-pro-val-pNA in DMSO
D) 0.01 sodium acetate, pH 5.5=enzyme buffer (storage)
E) HNE (1 mg) dissolved in 1 mL of […] for storage at -20° C.
Make a 10 mM stock of the inhibitor in DMSO. Dilute an aliquot (10 μL) up to 1.0 mL in reagent A (100 μM). Serially dilute 100 μL of the 100 μM in reagent A. Apply 100 μL of the diluted material to the wells of a 96-well plate. Dilute an aliquot of reagent F 1:150 in reagent D, apply 50 μL aliquots to the indicator wells and incubate 7 minutes at room temperature.
The HNE substrate solution is made by taking 100 μl of reagent C into 500 μL of reagent A and 400 μL of reagent B. After the 7 minutes of incubation, the substrate (50 μL) is applied to each well. The HNE catalyzed reaction is then monitored spectrophotometrically at 405 nm using an ELISA plate reader machine (UVMAX, Molecular Devices) which processes the raw data with an on-board kinetics program. The enzyme activity is plotted against different inhibitor concentrations and IC50 value is determined by using a curve fitting software program.
`CCC(C(=O)Oc1ccc(SC)cc1)c1ccc(C(CC)C(=O)Oc2ccc(SC)cc2)cc1` (stereo not drawn) [Compound 1, Bis(4-Methylmercaptophenyl)2'-(1,4-phenylene)dibutyrate]: the pIC50 (in general, the negative decadic logarithm of the IC50, by convention in mol/L) is 5.07.
`CCC(C(=O)Oc1ccc([S+](C)[O-])cc1)c1ccc(C(CC)C(=O)Oc2ccc([S+](C)[O-])cc2)cc1` (stereo not drawn) [Compound 2] had a pIC50 of 6.65.
Take `CCC(C(=O)Oc1ccc(S(C)(=O)=O)cc1)c1ccc(C(CC)C(=O)Oc2ccc(S(C)(=O)=O)cc2)cc1` (stereo not drawn) [Compound 3]: the negative logarithm of the IC50 (pIC50) was 7.21.
In turn, `CCC(C(=O)Oc1ccc(SCC(C)(C)C(=O)O)cc1)c1ccc(C(CC)C(=O)Oc2ccc(SCC(C)(C)C(=O)O)cc2)cc1` (stereo not drawn) [Compound 4] showed a pIC50 of 6.92.
With `CCC(C(=O)Oc1ccc([S+]([O-])CC(C)(C)C(=O)O)cc1)c1ccc(C(CC)C(=O)Oc2ccc([S+]([O-])CC(C)(C)C(=O)O)cc2)cc1` (stereo not drawn) [Compound 5] the figure was 7.40; with `CCC(C(=O)Oc1ccc(S(=O)(=O)CC(C)(C)C(=O)O)cc1)c1ccc(C(CC)C(=O)Oc2ccc(S(=O)(=O)CC(C)(C)C(=O)O)cc2)cc1` (stereo not drawn) [Compound 6], 7.55.
With `CCC(C(=O)Oc1ccc([S+]([O-])C(C)(C)C(=O)O)cc1)c1ccc(C(CC)C(=O)Oc2ccc([S+]([O-])C(C)(C)C(=O)O)cc2)cc1` (stereo not drawn) [Compound 8] the figure was 7.13; with `CCC(C(=O)Oc1ccc(S(=O)(=O)C(C)(C)C(=O)O)cc1)c1ccc(C(CC)C(=O)Oc2ccc(S(=O)(=O)C(C)(C)C(=O)O)cc2)cc1` (stereo not drawn) [Compound 9], 7.43; with `CC(C)(CSc1ccc(OC(=O)C(C)(C)c2ccc(C(C)(C)C(=O)Oc3ccc(SCC(C)(C)C(=O)O)cc3)cc2)cc1)C(=O)O` [Compound 10], 6.60.
Consider `CC(C)(C[S+]([O-])c1ccc(OC(=O)C(C)(C)c2ccc(C(C)(C)C(=O)Oc3ccc([S+]([O-])CC(C)(C)C(=O)O)cc3)cc2)cc1)C(=O)O` (stereo not drawn) [Compound 11], for which the pIC50 is 7.64.
The figure for `CC(C)(C(=O)Oc1ccc(SCC(=O)O)cc1)c1ccc(C(C)(C)C(=O)Oc2ccc(SCC(=O)O)cc2)cc1` [Compound 13] is 6.08; for `CC(C)(C(=O)Oc1ccc(S(=O)(=O)CC(=O)O)cc1)c1ccc(C(C)(C)C(=O)Oc2ccc(S(=O)(=O)CC(=O)O)cc2)cc1` [Compound 15] it is 7.11.
With `CCC(C(=O)Oc1ccc(SCC(C)(C)C(=O)O)cc1)c1cccc(C(CC)C(=O)Oc2ccc(SCC(C)(C)C(=O)O)cc2)c1` (stereo not drawn) [Compound 19] the figure was 6.70; with `CCC(C(=O)Oc1ccc(S(=O)(=O)CC(C)(C)C(=O)O)cc1)c1cccc(C(CC)C(=O)Oc2ccc(S(=O)(=O)CC(C)(C)C(=O)O)cc2)c1` (stereo not drawn) [Compound 21], 7.44.
With `CCC(C(=O)Oc1ccnc(SC)n1)c1ccc(C(CC)C(=O)Oc2ccnc(SC)n2)cc1` (stereo not drawn) [Compound 28], the pIC50 is 7.19.
